Results taken from publication PMC3174355 (Journal of medicinal chemistry, 2011).

Target: Rat nNOS (Rattus norvegicus, UniProt P29476)
Test: NOS inhibition assay, Ki for rat nNOS
Format: biochemical

Row | Structure (SMILES) | increase in nNOS potency (8a vs 1b (m-chloro for m-fluoro)) [fold] | lower potency for rat nNOS (8b vs 8a) [fold]
1 | Cc1cc(N)nc(C[C@@H]2CNC[C@@H]2OCCNCC(F)(F)c2cccc(Cl)c2)c1 [Compound 8a, 6-(((3R,4R)-4-(2-((2,2-Difluoro-2-(3-chlorophenyl)ethyl)amino)ethoxy)pyrrolidin-3-yl)methyl)-4-methylpyridin-2-amine] | 1.3 | 
2 | Cc1cc(N)nc(C[C@@H]2CNC[C@@H]2OCCNCC(F)(F)c2ccccc2Cl)c1 [Compound 8b, 6-(((3R,4R)-4-(2-((2,2-Difluoro-2-(2-chlorophenyl)ethyl)amino)ethoxy)pyrrolidin-3-yl)methyl)-4-methylpyridin-2-amine] |  | 2
